{
  "source": "patent US10028963B2",
  "about": "“Methods for treating intrapulmonary infections” (priority 2011, dated 2018)",
  "origin": "cited, not measured here",
  "settings": "patients treated for nosocomial pneumonia",
  "data": [
    {"smiles": "CN(C)c1cc(NC(=O)CNC(C)(C)C)c(O)c2c1C[C@H]1C[C@H]3[C@H](N(C)C)C(=O)C(C(N)=O)=C(O)[C@@]3(O)C(=O)C1=C2O", "note": "[tigicycline]", "values": [
      {"measurement": "Mortality risk compared to other drugs", "result": "increased mortality risk"}
    ]}
  ]
}
